Test [1] has as its system C. glabrata ATCC 9003 YLO8. Put plainly: microbe, parasite or virus in culture. The note with it: Nakaseomyces glabratus, ATCC9003.
For test [2], the system named is C. albicans ATCC 90028 YLO12. Briefly: microbe, parasite or virus in culture. As to conditions: Candida albicans, ATCC90028.
In test [3] the test system is C. krusei HIV patient YHO50075. Briefly: organism not typed.
Test [4] deals with C. albicans HIV patient YHO50005. Briefly: organism not typed.
For test [5], the system named is C. glabrata HIV patient YHO50105. Briefly: organism not typed.
In test [6] the test system is C. tropicalis ATCC 13803 YLO86. Briefly: microbe, parasite or virus in culture. As to conditions: Candida tropicalis, ATCC13803.
The subject of a further test is C. krusei ATCC 6258 YLO6. Briefly: microbe, parasite or virus in culture. The note with it: Pichia kudriavzevii, ATCC6258.
Test [7] deals with C. tropicalis HIV patient YHO50013. Put plainly: organism not typed.
Test [8] has as its system C. parapsilosis ATCC 22019 YLO7. Put plainly: microbe, parasite or virus in culture. The note with it: Lodderomyces parapsilosis, ATCC22019.
Test [9] relates to C. dubliniensis HIV patient YHO50092. Put plainly: organism not typed.
The subject of test [10] is C. tropicalis HIV patient YHO50007. Put plainly: organism not typed.
The subject of test [11] is C. albicans HIV patient YHO50001. Briefly: organism not typed.
The subject of test [12] is C. albicans HIV patient YHO50072. Briefly: organism not typed.
Test [13] concerns C. tropicalis HIV patient YHO50114. Briefly: organism not typed.

SMILES strings stand for the structures. Converted amounts (≈) assume the structure as drawn. Bounds are passed on as bounds.

The source of these data is patent publication US9073967B2, “High salt-resistance antibacterial peptide and method for producing the same” (NATIONAL TSING HUA UNIVERSITY, priority 2011, dated 2015).

For the compound `OC(Cn1cncn1)(Cn1cncn1)c1ccc(F)cc1F` [Flu, fluconazole], the MIC in test [1] is 16 µg/mL (≈ 52.2 µM); in test [2], 1 µg/mL (≈ 3.27 µM); in [3] it was 64 µg/mL (≈ 209 µM); in test [4], 1 µg/mL (≈ 3.27 µM); in test [5] it was 16 µg/mL (≈ 52.2 µM); in [6], over 64 µg/mL. Further, the MIC against C. krusei ATCC 6258 YLO6 is 32 µg/mL (≈ 104 µM); in test [7] it was over 64 µg/mL; in test [8] it was 8 µg/mL (≈ 26.1 µM); in [9] it was 0.5 µg/mL (≈ 1.63 µM); in test [10], over 64 µg/mL; in test [11] it was 2 µg/mL (≈ 6.53 µM). The MIC in test [12] and in [13] was over 64 µg/mL in each case.
